pIC50: −log10 of the molar value.
Tests used:
L1210 = assay: Comet assay, DNA crosslinking; assay type: cell-based, murine; conditions: ratio >1 = more cross-linking in parental than in platinum-resistant line
Procedure: (§1) Preliminary studies have been carried out to investigate the mechanism underlying this increased sensitivity. These studies were carried out using the Comet assay (described in Appendix C), which measures damage to DNA. The results are shown in FIGS. 1 (cisplatinum), 2 (carboplatinum), 3 to 8 (compounds A-F) and 9 (phenylgoldtriphenylphospine, PAuP).
(§2) Table 3 illustrates the results of the following calculation using the DNA cross-linking results obtained in the Comet assays:
(§3) DNA damage was measured by the single cell gel electrophoresis (SCGE) assay or “Comet assay”, originally developed by Ostling and Johnson^8. This is a method for determining the extent of DNA damage and repair capacity within individual cells.^9-11 It has previously been shown that this technique can be used to investigate the mechanism of action of different DNA damaging agents.^12
(§4) Cells were trypsinised, suspended in 0.5 ml of ice cold fresh medium and transferred into plastic 24-well dishes prior to embedding in agarose. For the cross-linking studies treated and control samples were chilled on ice (to prevent any repair of DNA damage) and irradiated to a dose of 20 Gy in a Caesium-137 source (0.4 Gy/min). Control, (unirradiated, non-drug treated cells) were maintained on ice in the same manner as treated samples.
(§5) Glass microscope slides, frosted at one end, were pre-coated with 1% normal agarose in distilled water. These slides were allowed to air dry overnight prior to use. A 1% low melting point agarose (LMP) mixture in PBS was melted and held at 45° C. 1 ml of LMP was then added to 0.5 ml of cell suspension on ice and the resultant mixture was pipetted onto a pre-coated glass microscope slide and allowed to set for 1-2 minutes before being transferred to an ice tray. The slides were immersed in ice cold lysis solution (100 mM EDTA, 10 mM Tris-HCl, 1% Triton ×100, 1% DMSO, 2.5M NaCl) for 1 hr, and washed three times by immersion in fresh double distilled water for 15 minutes.
(§6) Slides were then placed onto a flat bed electrophoresis tank and covered (5-6 mm) with alkali unwinding solution (50 mM NaOH, 1 mM EDTA buffered to pH 12.5) and left under subdued lighting for 45 minutes to allow the DNA to unwind before being subjected to electrophoresis at 0.6V/cm for 25 minutes. Each slide was rinsed with 2×1 ml of 0.4M Tris-HCl, pH 8.0 and allowed to dry in air. The dried slides were then rehydrated for 20 minutes with double distilled water, 2×1 ml of propidium iodide solution (2.5 μg/ml) was added and staining was allowed to proceed for 15 minutes. Slides were then immersed in 1 litre of double distilled water for 1 hour to reduce excess background staining. The slides were cover slipped and then examined at 250× magnification under an epifluorescent microscope (Zeiss-Jenamed) using green light from a 50 watt mercury source with a 580 nm reflector and a 590 nm barrier filter set. Images were captured using an attached Sony HAD-1 interline CCD camera and Komet software analysis package (Kinetic Imaging). Twenty-five images from each of two duplicate slides were captured and analysed and the individual “comet moments” as defined by Olive et al^13, were calculated. The total fluorescence of the image represents the amount of DNA present and the length of the image, measured in pixels, represents the length of migration of the DNA. The head and tail areas of the image were identified and the intensity of each was determined. The tail moment is calculated by multiplying the fraction of DNA present in the tail by half the length of the tail.

[1] = system: parental and platinum-resistant cell lines; assay: Comet assay, DNA cross-linking, summary of FIGS. 1-9; assay type: cell-based
Procedure: as §1, §3, §4, §5, §6

cor123 = assay: Comet assay, DNA crosslinking; assay type: cell-based, human; conditions: ratio >1 = more cross-linking in parental than in platinum-resistant line
Procedure: as §1, §2, §3, §4, §5, §6

A2780cis = assay: Comet assay, DNA crosslinking; assay type: cell-based, human; conditions: ratio >1 = more cross-linking in parental than in platinum-resistant line
Procedure: as §1, §2, §3, §4, §5, §6

A2780/mcp8 = assay: Comet assay, DNA crosslinking; assay type: cell-based, human; conditions: ratio >1 = more cross-linking in parental than in platinum-resistant line
Procedure: as §1, §2, §3, §4, §5, §6

A2780mcp1 = assay: Comet assay, DNA crosslinking; assay type: cell-based, human; conditions: ratio >1 = more cross-linking in parental than in platinum-resistant line
Procedure: as §1, §2, §3, §4, §5, §6

ccu24 = assay: Comet assay, DNA crosslinking; assay type: cell-based, human; conditions: ratio >1 = more cross-linking in parental than in platinum-resistant line
Procedure: as §1, §2, §3, §4, §5, §6

mcp1 cell line = assay: Growth inhibition assay (modified MTT); assay type: cell-based, human; conditions: Table 1, first series of assays; mcp1; five-day MTT
Procedure: (§7) The sensitivities of the cell lines to cisplatinum, carboplatinum, and compounds A-F were determined using a growth inhibition assay which was a modified version of the MTT method (modified version of MTT method described in Appendix B).
(§8) The following is a brief description of the eleven different cell lines used in the growth inhibition assay: • The A2780 cell line (1 in FIGS. 1-9) is a human ovarian cell line which is sensitive to cisplatinum and carboplatinum. […] The cor123/cpr (7) cell line is a modified version of the cor123 cell line which has been modified to be resistant to cisplatinum and carboplatinum. • The ccu24 (8) cell line is an epithelial ovarian cancer cell line, developed at the Christie Hospital from a tumour biopsy, and the ccu24/cpr (9) cell line is a modified version of this cell line which is cisplatinum and carboplatinum resistant. • L1210 (10) is a murine leukemia cell line and L1210/M1140 (11) is its platinum drug resistant subline.
(§9) The cell toxicity studies were performed using a modification of the method MTT.^7 The principle of the assay is to assess the growth inhibitory effect of a drug at various doses over a five-day time course. This assay was performed in 96-well microtitre plates. Cells were seeded at densities of 400-1,000 cells per well, depending on the doubling time of the cell line. All cell dilutions were performed in growth medium containing 10% FCS (foetal calf serum).
(§10) Compounds under investigation were dissolved in DMSO (dimethylsulphoxide). Serial dilutions of compound were made into the cell suspension, ensuring that the proportion of DMSO remained below 0.5%. 200 μl of cells and drug mix was added to the 96-well plates in triplicate. The plates were incubated for five days at 5% CO2 and 37° C. After this time, the plates were removed from the incubator and 50 μl of a 3 mg/ml solution of MTT [3-(4,5-dimethyl-thiazol-2-yl)-2,5-diphenyl tetrazolium bromide] was added to each well and incubated in the same conditions for another 3 hours. The medium from each well was aspirated and the formazan crystals were solubilised in 200 μl of DMSO. The plates were read using a Multiskan platereader at 540 nm and 690 nm. Growth inhibition curves were constructed using mean and standard deviation of the triplicate absorbance values and from these curves the IC50 values were calculated.

cor123/cpr cell line = assay: Growth inhibition assay (modified MTT); assay type: cell-based, human; conditions: Table 1, first series of assays, five-day MTT
Procedure: as §7, §8, §9, §10

ccu24 cell line = assay: Growth inhibition assay (modified MTT); assay type: cell-based, human; conditions: Table 1, first series of assays, five-day MTT
Procedure: as §7, §8, §9, §10

mcp8 cell line = assay: Growth inhibition assay (modified MTT); assay type: cell-based, human; conditions: Table 1, first series of assays; mcp8; five-day MTT
Procedure: as §7, §8, §9, §10

A2780-S cell line = assay: Growth inhibition assay (modified MTT); assay type: cell-based, human; conditions: Table 1, first series of assays, five-day MTT
Procedure: as §7, §8, §9, §10

ccu24/cpr cell line = assay: Growth inhibition assay (modified MTT); assay type: cell-based, human; conditions: Table 1, first series of assays, five-day MTT
Procedure: as §7, §8, §9, §10

A2780carb cell line = assay: Growth inhibition assay (modified MTT); assay type: cell-based, human; conditions: Table 1, first series of assays; A2780carb; five-day MTT
Procedure: as §7, §8, §9, §10

A2780cis cell line = assay: Growth inhibition assay (modified MTT); assay type: cell-based, human; conditions: Table 1, first series of assays; A2780cis; five-day MTT
Procedure: as §7, §8, §9, §10

cor123 cell line = assay: Growth inhibition assay (modified MTT); assay type: cell-based, human; conditions: Table 1, first series of assays, five-day MTT
Procedure: as §7, §8, §9, §10

L1210 cell line = assay: Growth inhibition assay (modified MTT); assay type: cell-based, murine; conditions: Table 1, first series of assays, five-day MTT
Procedure: as §7, §8, §9, §10

L1210/M1140 cell line = assay: Growth inhibition assay (modified MTT); assay type: cell-based, murine; conditions: Table 1, first series of assays, five-day MTT
Procedure: as §7, §8, §9, §10

A2780carb = assay: Comet assay, DNA crosslinking; assay type: cell-based, human; conditions: ratio >1 = more cross-linking in parental than in platinum-resistant line
Procedure: as §1, §2, §3, §4, §5, §6

eleven cell lines = assay: Growth inhibition assay (modified MTT), summary over cell lines; assay type: cell-based, mouse and human; conditions: text reference to Table 1; cell line not stated
Procedure: as §7
as §8, with “subline. […]” for “subline.”
Compounds under investigation were dissolved in DMSO (dimethylsulphoxide). […] The plates were read using a Multiskan platereader at 540 nm and 690 nm. Growth inhibition curves were constructed using mean and standard deviation of the triplicate absorbance values and from these curves the IC50 values were calculated.

Structure (SMILES)	DNA crosslinking (Comet) ratio (L1210)	DNA crosslinking (Comet) ratio (cor123)	DNA crosslinking (Comet) ratio (A2780cis)	DNA crosslinking (Comet) ratio (A2780/mcp8)	DNA crosslinking (Comet) ratio (A2780mcp1)	DNA crosslinking (Comet) ratio (ccu24)	pIC50 (A2780-S cell line)	pIC50 (A2780cis cell line)	also measured
N.N.[Cl][Pt][Cl] [Cisplatin, cisplatin, reference compound]	3.37	5.72	5.65	5.70	5.40	4.65	5.88	4.52	DNA cross-linking in parental cell lines ([1]; parental (platinum-sensitive) A2780, L1210 and cor123 cell lines, FIGS. 1 and 2): extensive DNA cross-linking; DNA cross-linking in platinum-resistant cell lines ([1]; platinum-resistant cell lines, FIGS. 1 and 2): much less cross-linking; DNA crosslinking (Comet) ratio, all resistant cell lines ([1]; summary of Table 3): a ratio greater than unity; pIC50 (mcp1 cell line): 4.70; pIC50 (cor123/cpr cell line): 4.57; pIC50 (ccu24 cell line): 5.36; pIC50 (mcp8 cell line): 4.61; pIC50 (ccu24/cpr cell line): 4.60; pIC50 (A2780carb cell line): 4.56; pIC50 (cor123 cell line): 5.46; pIC50 (L1210 cell line): 4.92; pIC50 (L1210/M1140 cell line): 4.35
[Au+].[c-]1ccccc1.c1ccc([PH+](c2ccccc2)c2ccccc2)cc1 [PAuP, phenylgoldtriphenylphospine, reference compound]	1.33	0.75	1.00	1.33	1.33	1.00	< 5.00	< 5.00	level of cross-linking ([1]; FIG. 9, compared to the di-gold compounds): low compared to the di-gold compounds; DNA crosslinking (Comet) ratio (A2780carb): 1.33; ID50 (cytotoxicity) (eleven cell lines): > 10000 mu

Reference: patent publication US7732485B2, “Treatment of cancer” (The University of Manchester, priority 2003, dated 2010)
